EC50 data for 12 compounds are collected here from patent US20250042922A1, “KRAS MODULATING COMPOUNDS” (priority 2023, published 2025).

In assay [1] the test system is cellular pERK in NCI-H441 (KRAS-G12V) cells. Description: Cell based pERK assay, NCI-H441. The conditions noted are these: Homo sapiens; NCI-H441 (KRAS-G12V), 2 hours incubation, HTRF phospho-ERK1/2; read-out: H441 PERK EC50. How it is done:
(§1) Compounds were tested in a 384-well assay format for their ability to inhibit cellular pERK in Kuramochi (WT KRAS), MIA-PaCa-2 (KRAS-G12C), ASPC-1 (KRAS G12D), and NCI-H441 (KRAS-G12V) cell-lines. Compounds were serially diluted (1:3) in DMSO. On day −1, 80 μL of cells were plated per well in the 384 well tissue-culture plates (Greiner: Cat #781080) to seed 5000 cells per wells of AsPC-1 or 7500 cells of MIA-PaCa-2, NCI-H441, and Kuramochi cell lines in RPMI (Corning: Cat #10-040-CM) with 10% fetal bovine serum (FBS) (HyClone: Cat #SH30071-03) and 1× penicillin-streptomycin-glutamate (PSG) (Corning: Cat #30-009-CI) for […] and Kuramochi cell lines and DMEM (Corning: Cat #15-018-CM) with 10% FBS and 1×PSG for MIA-PaCa-2 cell line. The plates were then incubated overnight at 37° C. and 5% CO2. On day 0, 400 nL of compound/well was added into the cell plates and mixed 5 times by pipetting using a Beckmann Biomek FX. The cell plates were then incubated for 2 hours at 37° C. and 5% CO2. HTRF Advanced Phospho-ERK1/2 (THR202/TYR204) Detection Kits (PerkinElmer: Cat #64AERPEG) were used to prepare the lysis and detection solution according to manufacturer protocol. Following the 2 hour incubation, 70 μL of medium was aspirated from the plates and 10 uL of lysis and detection solution was added to the plates using a Biotek EL406 washer and dispenser. Plates were sealed and stored overnight at room temperature. HTRF ratio (665 nm/615 nm) was read by Envision multimode reader (PerkinElmer) the next day. The TR-FRET ratios were normalized to a positive (saturating concentration of known inhibitor) and negative (DMSO) control and plotted against the log of compound concentration.
On the technique in general: Time-resolved FRET reads energy transfer from a long-lived donor to a nearby acceptor.

For assay [2], the system named is cellular pERK in ASPC-1 (KRAS G12D) cells. Description: Cell based pERK assay, ASPC-1. To be noted: Homo sapiens, ASPC1; ASPC-1 (KRAS G12D), 2 hours incubation, HTRF phospho-ERK1/2; read-out: AsPC1 pERK EC50. How it is done: as §1
Assay [3] has as its system cellular pERK in Kuramochi (WT KRAS) cells. Description: Cell based pERK assay, Kuramochi. The conditions noted are these: Kuramochi (WT KRAS), 2 hours incubation, HTRF phospho-ERK1/2; read-out: Kuramochi pERK EC50. How it is done: as §1
In assay [4] the test system is cellular pERK in MIA-PaCa-2 (KRAS-G12C) cells. Description: Cell based pERK assay, MIA-PaCa-2. The conditions noted are these: Homo sapiens; MIA-PaCa-2 (KRAS-G12C), 2 hours incubation, HTRF phospho-ERK1/2; read-out: MIAPaCa2 pERK EC50. How it is done: as §1

Molecules are shown by their SMILES.

Turning to `C#Cc1c(F)ccc2cc(N)cc(-c3nc4c5c(nc(OC[C@@]67CCCN6C[C@H](F)C7)nc5c3F)N3C[C@@]5(F)CC[C@](F)(N5)[C@H]3CCC4)c12` [Example 4-2, 5-ethynyl-6-fluoro-4-((6aR,7R,10S)-1,7,10-trifluoro-13-(((2R,7aS)-2-fluorotetrahydro-1H-pyrrolizin-7a(5H)-yl)methoxy)-5,6,6a,7,8,9,10,11-octahydro-4H-3,11a,12,14,15-pentaaza-7,10-methanocyclohepta[4,5]cycloocta[1,2,3-de]naphthalen-2-yl)naphthalen-2-amine], the concentration for a half-maximal effect (EC50) came to 3.04 nM in assay [1], 20 nM in assay [2] and 2.89 nM in assay [3].
In the case of `C#Cc1c(F)ccc2cc(O)cc(-c3nc4c5c(nc(OCC67CCCN6CCC7)nc5c3F)N3C[C@@]5(F)CC[C@](F)(N5)[C@H]3CCC4)c12` [Example 4-5, 5-ethynyl-6-fluoro-4-((6aR,7R,10S)-1,7,10-trifluoro-13-((tetrahydro-1H-pyrrolizin-7a(5H)-yl)methoxy)-5,6,6a,7,8,9,10,11-octahydro-4H-3,11a,12,14,15-pentaaza-7,10-methanocyclohepta[4,5]cycloocta[1,2,3-de]naphthalen-2-yl)naphthalen-2-ol], the EC50 in assay [4] came to 0.397 nM; in assay [2] it was 10.1 nM; in assay [3], 6.47 nM.
The like results for `N#Cc1c(F)ccc2cc(O)cc(-c3nc4c5c(nc(OCC67CCCN6CCC7)nc5c3F)N3C[C@@]5(F)CC[C@](F)(N5)[C@H]3CCC4)c12` [Example 4-9, 2-fluoro-6-hydroxy-8-((6aR,7R,10S)-1,7,10-trifluoro-13-((tetrahydro-1H-pyrrolizin-7a(5H)-yl)methoxy)-5,6,6a,7,8,9,10,11-octahydro-4H-3,11a,12,14,15-pentaaza-7,10-methanocyclohepta[4,5]cycloocta[1,2,3-de]naphthalen-2-yl)-1-naphthonitrile] were, in that order, 6.08 nM, 323 nM and 13.2 nM.
For `C#Cc1c(F)ccc2c(F)c(N)cc(-c3nc4c5c(nc(OCC67CCCN6CCC7)nc5c3F)N3C[C@@]5(F)CC[C@](F)(N5)[C@H]3CCC4)c12` [Example 4-18, 5-ethynyl-1,6-difluoro-4-((6aR,7R,10S)-1,7,10-trifluoro-13-((tetrahydro-1H-pyrrolizin-7a(5H)-yl)methoxy)-5,6,6a,7,8,9,10,11-octahydro-4H-3,11a,12,14,15-pentaaza-7,10-methanocyclohepta[4,5]cycloocta[1,2,3-de]naphthalen-2-yl)naphthalen-2-amine], in that order: 22.3 nM, 388 nM and 13.3 nM.
The like results for `Oc1cc(-c2nc3c4c(nc(OCC56CCCN5CCC6)nc4c2F)N2C[C@@]4(F)CC[C@](F)(N4)[C@H]2CCC3)c2c(F)c(F)ccc2c1` [Example 4-22, 5,6-difluoro-4-[(4S,7R,8R)-4,7,15-trifluoro-18-(1,2,3,5,6,7-hexahydropyrrolizin-8-ylmethoxy)-2,13,17,19,21-pentazapentacyclo[10.7.1.14,7.02,8.016,20]henicosa-1(19),12(20),13,15,17-pentaen-14-yl]naphthalen-2-ol] were, in that order, 2.03 nM, 83.4 nM and 4.1 nM.
Take `C#Cc1c(F)ccc2cccc(-c3nc4c5c(nc(OCC67CCCN6CCC7)nc5c3F)N3C[C@@]5(F)CC[C@](F)(N5)[C@@H]3[C@@H](C)C4)c12` [Example 4-31, (5S,5aS,6R,9S)-2-(8-ethynyl-7-fluoronaphthalen-1-yl)-1,6,9-trifluoro-5-methyl-12-((tetrahydro-1H-pyrrolizin-7a(5H)-yl)methoxy)-4,5,5a,6,7,8,9,10-octahydro-3,10a,11,13,14-pentaaza-6,9-methanonaphtho[1,8-ab]heptalene]: the EC50 in assay [4] worked out at 2.19 nM; in assay [2], 38.1 nM; in assay [3] it was 1.36 nM.
The like results for `C#Cc1c(F)c(F)cc2cc(O)cc(-c3nc4c5c(nc(OCC67CCCN6CCC7)nc5c3F)N3C[C@@]5(F)CC[C@](F)(N5)[C@@H]3[C@@H](C)C4)c12` [Example 4-33, 5-ethynyl-6,7-difluoro-4-((5S,5aS,6R,9S)-1,6,9-trifluoro-5-methyl-12-((tetrahydro-1H-pyrrolizin-7a(5H)-yl)methoxy)-4,5,5a,6,7,8,9,10-octahydro-3,10a,11,13,14-pentaaza-6,9-methanonaphtho[1,8-ab]heptalen-2-yl)naphthalen-2-ol] were, in that order, 0.286 nM, 12.4 nM and 8.68 nM.
As to `C#Cc1c(F)ccc2cc(N)cc(-c3nc4c5c(nc(OC[C@@]67CCCN6C[C@H](F)C7)nc5c3F)N3C[C@@]5(F)CC[C@H](N5)[C@@H]3[C@@H](C)[C@H]4C)c12` [Example 4-37, 4-((4R,5S,5aS,6S,9S)-1,9-difluoro-12-(((2R,7aS)-2-fluorotetrahydro-1H-pyrrolizin-7a(5H)-yl)methoxy)-4,5-dimethyl-4,5,5a,6,7,8,9,10-octahydro-3,10a,11,13,14-pentaaza-6,9-methanonaphtho[1,8-ab]heptalen-2-yl)-5-ethynyl-6-fluoronaphthalen-2-amine], the EC50 in assay [1] worked out at 0.475 nM; in assay [4], 0.153 nM; in assay [2] it was 4.65 nM.
As for `Nc1cc(-c2nc3c4c(nc(OCC56CCCN5CCC6)nc4c2F)N2C[C@@]4(F)CC[C@](F)(N4)[C@H]2CCC3)c2c(Cl)c(F)ccc2c1` [Example 5-2, 5-chloro-6-fluoro-4-((6aR,7R,10S)-1,7,10-trifluoro-13-((tetrahydro-1H-pyrrolizin-7a(5H)-yl)methoxy)-5,6,6a,7,8,9,10,11-octahydro-4H-3,11a,12,14,15-pentaaza-7,10-methanocyclohepta[4,5]cycloocta[1,2,3-de]naphthalen-2-yl)naphthalen-2-amine], the EC50 in assay [4] is 17.7 nM; in assay [2] it was 338 nM; in assay [3] it was 4.4 nM.
`CCc1c(F)ccc2cc(N)cc(-c3nc4c5c(nc(OCC67CCCN6CCC7)nc5c3F)N3C[C@@]5(F)CC[C@](F)(N5)[C@H]3CCC4)c12` [Example 6-2, 5-ethyl-6-fluoro-4-((6aR,7R,10S)-1,7,10-trifluoro-13-((tetrahydro-1H-pyrrolizin-7a(5H)-yl)methoxy)-5,6,6a,7,8,9,10,11-octahydro-4H-3,11a,12,14,15-pentaaza-7,10-methanocyclohepta[4,5]cycloocta[1,2,3-de]naphthalen-2-yl)naphthalen-2-amine]: the concentration for a half-maximal effect (EC50) in assay [4] was 22.6 nM; in assay [2], 456 nM; in assay [3] it was 6.48 nM.
The like results for `CCc1c(F)ccc2cc(O)cc(-c3nc4c5c(nc(OCC67CCCN6CCC7)nc5c3F)N3C[C@@]5(F)CC[C@](F)(N5)[C@@H]3[C@@H](C)C4)c12` [Example 6-3, 5-ethyl-6-fluoro-4-((8S,8aS,9R,12S)-4,9,12-trifluoro-8-methyl-2-((tetrahydro-1H-pyrrolizin-7a(5H)-yl)methoxy)-7,8,8a,9,10,11,12,13-octahydro-1,3,6,13a,14-pentaaza-9,12-methanonaphtho[1,8-ab]heptalen-5-yl)naphthalen-2-ol] were, in that order, 0.513 nM, 20 nM and 6.62 nM.
For the compound `CCc1c(F)ccc2cc(N)cc(-c3nc4c5c(nc(OCC67CCCN6CCC7)nc5c3F)N3C[C@@]5(F)CC[C@](F)(N5)[C@@H]3[C@@H](C)C4)c12` [Example 6-4, 5-ethyl-6-fluoro-4-((8S,8aS,9R,12S)-4,9,12-trifluoro-8-methyl-2-((tetrahydro-1H-pyrrolizin-7a(5H)-yl)methoxy)-7,8,8a,9,10,11,12,13-octahydro-1,3,6,13a,14-pentaaza-9,12-methanonaphtho[1,8-ab]heptalen-5-yl)naphthalen-2-amine], the EC50 worked out at 12.8 nM in assay [4], 197 nM in assay [2] and 8.24 nM in assay [3].

Broadly, the EC50 is the midpoint of the concentration-response curve.
